Experimental data from US12215082B1 (priority 2023, dated 2025).

Each molecule was assayed on Mycobacterium tuberculosis H37Rv (susceptible) (assay: Resazurin Microplate Assay (REMA), anti-tubercular activity, H37Rv strain). Details: 192 h, read-out: MIC Susceptible (H37Rv).
Format: cell-based

Q: With `O=C(C[n+]1ccc(/C=N/O)cc1)c1ccccc1.[Br-]` [Compound 3a, (E)-4-((Hydroxyimino)methyl)-1-(2-oxo-2-phenylethyl)pyridin-1-ium bromide] as the molecule, how does the MIC read?
A: The MIC was 32 µg/mL.

Q: With `O=C(C[n+]1ccc(/C=N/O)cc1)c1ccc(Br)cc1.[Br-]` [Compound 3b, (E)-1-(2-(4-Bromophenyl)-2-oxoethyl)-4-((hydroxyimino)methyl)pyridin-1-ium bromide] as the molecule, how does the MIC read?
A: The MIC was 32 µg/mL.

Q: How did the MIC turn out when `O=C(C[n+]1ccc(/C=N/O)cc1)c1ccc(F)cc1.[Br-]` [Compound 3c, (E)-1-(2-(4-Fluorophenyl)-2-oxoethyl)-4-((hydroxyimino)methyl)pyridin-1-ium bromide] was run?
A: The MIC was 32 µg/mL.

Q: Which MIC does the source give for `N#Cc1ccc(C(=O)C[n+]2ccc(/C=N/O)cc2)cc1.[Br-]` [Compound 3d, (E)-1-(2-(4-Cyanophenyl)-2-oxoethyl)-4-((hydroxyimino)methyl)pyridin-1-ium bromide] here?
A: The MIC was 16 µg/mL.

Q: For `O=C(C[n+]1ccc(/C=N/O)cc1)c1ccccc1[N+](=O)[O-].[Br-]` [Compound 3e, (E)-4-((Hydroxyimino)methyl)-1-(2-(2-nitrophenyl)-2-oxoethyl)pyridin-1-ium bromide], which MIC is on record?
A: Its MIC is 64 µg/mL.
